The target of one test is EeAChE (Electrophorus electricus, UniProt O42275). Briefly: AChE inhibition assay. Type of test: biochemical.
The next test has as its target hBACE 1 (Homo sapiens, UniProt P56817). Briefly: BACE 1 inhibition assay. In kind it is biochemical.
Where [1] appears, read: read-out: eeAChE IC50 (μM) ± SD, Ellman assay, mean ± SD of three experiments.
Setting [2] is: read-out: hBACE 1 IC50 (μM) ± SD, FRET assay, mean ± SD of three experiments.

Like-named read-outs stand apart in the source and are kept apart here.

Here are results for nine compounds from publication PMC11341970 (RSC Advances, 2024).

Sequence of EeAChE (O42275 24-633): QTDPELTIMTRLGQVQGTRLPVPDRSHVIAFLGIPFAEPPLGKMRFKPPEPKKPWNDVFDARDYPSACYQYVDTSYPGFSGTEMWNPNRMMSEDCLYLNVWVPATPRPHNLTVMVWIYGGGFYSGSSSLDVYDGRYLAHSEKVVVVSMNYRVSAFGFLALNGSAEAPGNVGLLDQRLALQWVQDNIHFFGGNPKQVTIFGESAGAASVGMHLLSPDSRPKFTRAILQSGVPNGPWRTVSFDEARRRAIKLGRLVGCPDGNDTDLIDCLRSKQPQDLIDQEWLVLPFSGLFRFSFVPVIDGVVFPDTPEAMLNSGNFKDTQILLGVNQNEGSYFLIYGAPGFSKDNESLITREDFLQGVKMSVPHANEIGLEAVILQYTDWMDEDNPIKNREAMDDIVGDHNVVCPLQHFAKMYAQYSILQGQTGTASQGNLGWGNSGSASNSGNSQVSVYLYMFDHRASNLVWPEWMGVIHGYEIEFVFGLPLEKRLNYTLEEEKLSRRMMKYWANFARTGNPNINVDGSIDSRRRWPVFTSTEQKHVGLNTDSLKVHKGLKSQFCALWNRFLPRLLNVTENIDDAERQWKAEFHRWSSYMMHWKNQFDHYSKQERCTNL
Sequence of hBACE 1 (P56817 46-501): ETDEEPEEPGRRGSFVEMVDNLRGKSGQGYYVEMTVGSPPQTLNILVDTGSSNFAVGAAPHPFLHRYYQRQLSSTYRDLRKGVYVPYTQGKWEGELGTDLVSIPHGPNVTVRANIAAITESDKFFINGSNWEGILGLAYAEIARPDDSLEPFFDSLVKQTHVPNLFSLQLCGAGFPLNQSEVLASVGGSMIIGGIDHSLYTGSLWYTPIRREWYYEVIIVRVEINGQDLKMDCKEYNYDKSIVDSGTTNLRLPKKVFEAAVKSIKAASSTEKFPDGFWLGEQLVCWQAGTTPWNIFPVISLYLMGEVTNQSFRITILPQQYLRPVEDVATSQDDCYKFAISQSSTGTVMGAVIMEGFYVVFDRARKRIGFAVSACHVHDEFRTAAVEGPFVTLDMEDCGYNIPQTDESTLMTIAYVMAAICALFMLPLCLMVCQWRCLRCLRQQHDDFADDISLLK

Consider `[H]/N=C(/N)NN=C(/C=C/c1ccc(C(C)(C)C)cc1)c1cccn1Cc1ccc(F)cc1F` [Compound 3d, (Z)-2-((E)-3-(4-(tert-Butyl)phenyl)-1-(1-(2,4-difluorobenzyl)-1H-pyrrol-2-yl)allylidene)hydrazine-1-carboximidamide], for which the IC50 (as a rule, the concentration that gives 50% inhibition) at EeAChE (setting [1]) amounted to 104.3 ± 0.14 µM; at hBACE 1 (setting [2]), 221.8 ± 1.27 µM.

As for `[H]/N=C(/N)NN=C(/C=C/c1ccc(OC)c(OC)c1)c1cccn1Cc1cc(OC)cc(OC)c1` [Compound 3e, (Z)-2-((E)-1-(1-(3,5-Dimethoxybenzyl)-1H-pyrrol-2-yl)-3-(3,4-dimethoxyphenyl)allylidene)hydrazine-1-carboximidamide], the values for the IC50 on EeAChE and against hBACE 1 were 57.2 ± 2.47 µM and 162 ± 2.43 µM, respectively.

Turning to `[H]/N=C(/N)NN=C(/C=C/c1ccc(F)c(F)c1)c1cccn1Cc1ccc(C(C)(C)C)cc1` [Compound 3f, (Z)-2-((E)-1-(1-(4-(tert-Butyl)benzyl)-1H-pyrrol-2-yl)-3-(3,4-difluorophenyl)allylidene)hydrazine-1-carboximidamide], the concentration for half-maximal inhibition (IC50) on EeAChE (setting [1]) stood at 126.1 ± 0.71 µM; at hBACE 1 (setting [2]), 135.9 ± 0.71 µM.

With `[H]/N=C(/N)NN=C(/C=C/c1ccc(C(C)(C)C)cc1)c1cccn1Cc1ccc(-c2ccccc2)cc1` [Compound 3g, (Z)-2-((E)-1-(1-([1,1′-Biphenyl]-4-ylmethyl)-1H-pyrrol-2-yl)-3-(4-(tert-butyl)phenyl)allylidene)hydrazine-1-carboximidamide], the IC50 worked out at 76.1 ± 0.79 µM on EeAChE and 185.4 ± 1.84 µM at hBACE 1.

For `[H]/N=C(/N)NN=C(/C=C/c1ccc(C(C)(C)C)cc1)c1cccn1Cc1ccc(C(F)(F)F)cc1` [Compound 3h, (Z)-2-((E)-3-(4-(tert-Butyl)phenyl)-1-(1-(4-(trifluoromethyl)benzyl)-1H-pyrrol-2-yl)allylidene)hydrazine-1-carboximidamide], the values for the IC50 at EeAChE and at hBACE 1 were 71.17 ± 0.49 µM and 179 ± 2.26 µM, respectively.

In the case of `[H]/N=C(/N)NN=C(/C=C/c1ccc(C(C)(C)C)cc1)c1cccn1Cc1ccc(Br)cc1` [Compound 3i, (Z)-2-((E)-1-(1-(4-Bromobenzyl)-1H-pyrrol-2-yl)-3-(4-(tert-butyl)phenyl)allylidene)hydrazine-1-carboximidamide], the IC50 amounted to 83.94 ± 0.74 µM at EeAChE and 193 ± 2.12 µM on hBACE 1.

For the compound `[H]/N=C(/N)NN=C(/C=C/c1cc(OC)cc(OC)c1)c1cccn1Cc1ccc(C(C)(C)C)cc1` [Compound 3j, (Z)-2-((E)-1-(1-(4-(tert-Butyl)benzyl)-1H-pyrrol-2-yl)-3-(3,5-dimethoxyphenyl)allylidene)hydrazine-1-carboximidamide], the IC50 at EeAChE is 69.6 ± 1.51 µM; against hBACE 1, 177 ± 2.83 µM.

Take `[H]/N=C(/N)NN=C(/C=C/c1ccc(C(C)(C)C)cc1)c1cccn1Cc1ccc(C(C)(C)C)cc1` [Compound 3k, (Z)-2-((E)-1-(1-(4-(tert-Butyl)benzyl)-1H-pyrrol-2-yl)-3-(4-(tert-butyl)phenyl)allylidene)hydrazine-1-carboximidamide]: the IC50 is 48.1 ± 0.52 µM on EeAChE and 178.2 ± 0.92 µM against hBACE 1.

`[H]/N=C(/N)NN=C(/C=C/c1ccc(Cl)cc1)c1cccn1Cc1ccc(Br)cc1` [Compound 3l, (Z)-2-((E)-1-(1-(4-Bromobenzyl)-1H-pyrrol-2-yl)-3-(4-chlorophenyl)allylidene)hydrazine-1-carboximidamide]: the figures for the IC50 against EeAChE and on hBACE 1 were 123 ± 3.11 µM and 192.3 ± 1.77 µM, respectively.
